# In US6506373B1, “Agent and method for permanent waving” (Wella Aktiengesellschaft, priority 1998, dated 2003):
# What was measured:
# [1] = cited from earlier work
# [2] = Bundle tensile strength of permanently waved and fixed hair
# Method: The amount of permanent waving liquid was calculated from the ratio 1:1.2 (1 g of hair to 1.2 g of permanent waving liquid). The amount of 1.2 ml to 1 g of hair corresponds to an amount of 50 ml of permanent waving solution per head with an average weight of […] of hair per head. This solution was allowed to act for 15 minutes; the temperature of the reducing agent acting was 50° C. The permanent waving agent, based on thioglycolic acid, was rinsed out well with water (2 to 3 minutes). Subsequently, the hair strands were in each case moistened intensively with the respective ready-for-use fixative. This procedure was repeated three or six times, in that the strands, after each treatment, was suspended for six hours in the water bath.
# The tensile strength of the bundles, which are a measure of the preservation of the hair, were determined using individual strands of hair.
# [3] = Permanent waving application test: reductive treatment, then fixing with the ready-for-use fixative; settings: hair reduced with 10% thioglycolic acid solution pH 8.2, then fixed
# Method: In these examples, the hair was treated reductively in each case in the following manner:
# The solution was allowed to act for 15 minutes. The reducing agent acted at a temperature of 50° C.
# At the end of the period of action, the excess permanent waving solution was rinsed out with water and the fixing solution was then applied with a sponge. The fixing solution is prepared 2 minutes before use by dissolving component 1 in component 2.
# The hair is fixed for 30 minutes at 22° C. and subsequently rinsed with water. The curlers are then removed and the hair is rinsed with lukewarm water. Finally, the hair is styled and then dried.
SMILES,stability in aqueous solution [1],increase in hair damage on repeated use (bundle tensile strength after three vs six treatments) [2],brightening of the hair (shift in color) [3]
"O=C1O[C@H]([C@@H](O)CO)C(=O)C1=O [Dehydroascorbic Acid, dehydroascorbic acid]",unstable and decomposes within a few hours,no increase in hair damage,
"OO [Peroxide, hydrogen peroxide]",,,clearly detectable shift in coloring the direction of red and yellow
